Experimental data from the supplement of paper PMC11061612.

Assays:
Assay in all cases: combination Emax (second highest fraction inhibited in the dose matrix, 72 h); higher = more inhibition; extreme values may be limits of the assay
[1] = tested on: BFTC-905 (Bladder Carcinoma)
Procedure, shortened: (§1)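 After 24 hours at 37°C and 5% CO2 in 1536-well plates, cells in DMEM/F12 or RPMI plus 10% FBS received two-drug dose matrices for 72 hours. Viability came from CellTiter-Glo 2.0 luminescence and was scaled as inhibition, anchored at 0 by vehicle wells and at 1 by blank wells. Combination Emax is taken as the second-highest inhibition in the matrix, and Bliss excess as the observed combination effect less EA + EB − EA·EB, with EA and EB the single-agent effects.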

[2] = tested on: CAMA-1 (Breast Carcinoma)
Procedure, shortened: as §1

CHP-212 (Neuroblastoma) = tested on: CHP-212 (Neuroblastoma)
Procedure, shortened: as §1

ES8 (Ewing's Sarcoma) = tested on: ES8 (Ewing's Sarcoma)
Procedure, shortened: as §1

[3] = tested on: GR-ST (B-Lymphoblastic Leukemia)
Procedure, shortened: as §1

[4] = tested on: HDQ-P1 (Breast Carcinoma)
Procedure, shortened: as §1

[5] = tested on: HL-60 (Acute Myeloid Leukemia)
Procedure, shortened: as §1

[6] = tested on: K-562 (Chronic Myelogenous Leukemia)
Procedure, shortened: as §1

[7] = tested on: KCL-22 (Chronic Myelogenous Leukemia)
Procedure, shortened: as §1

[8] = tested on: MFM-223 (Breast Carcinoma)
Procedure, shortened: as §1

[9] = tested on: MKN28 (Gastric Carcinoma)
Procedure, shortened: as §1

[10] = tested on: MOLT-16 (T-Lymphoblastic Leukemia)
Procedure, shortened: as §1

[11] = tested on: NCI-H1792 (Lung Adenocarcinoma)
Procedure, shortened: as §1

NCI-H2818 (Mesothelioma) = tested on: NCI-H2818 (Mesothelioma)
Procedure, shortened: as §1

[12] = tested on: P12-ICHIKAWA (T-Lymphoblastic Leukemia)
Procedure, shortened: as §1

[13] = tested on: PANC-08-13 (Pancreatic Carcinoma)
Procedure, shortened: as §1

[14] = tested on: SW1417 (Colorectal Carcinoma)
Procedure, shortened: as §1

[15] = tested on: SW837 (Colorectal Carcinoma)
Procedure, shortened: as §1

[16] = tested on: TOV-112D (Ovarian Carcinoma)
Procedure, shortened: as §1

U251 (Low Grade Glioma) = tested on: U251 (Low Grade Glioma)
Procedure, shortened: as §1

COc1cc2ncnc(Nc3ccc(F)c(Cl)c3)c2cc1OCCCN1CCOCC1 [Gefitinib] + CC(C)n1c(=O)n(C)c2cnc3cc(F)c(-c4ccc(OCCCN5CCCCC5)nc4)cc3c21 [AZD1390] (first compound max 10 µM, 7x7, partner max 0.3 µM)
combination Emax [1]: 0.212 | combination Emax [2]: 0.111 | combination Emax (CHP-212 (Neuroblastoma)): 0.157 | combination Emax (ES8 (Ewing's Sarcoma)): 0.178 | combination Emax [3]: 0.39 | combination Emax [4]: 0.383 | combination Emax [5]: 0.0178 | combination Emax [6]: 0.13 | combination Emax [7]: 0.155 | combination Emax [8]: 0.121 | combination Emax [9]: 0.0764 | combination Emax [10]: 0.363 | combination Emax [11]: 0.231 | combination Emax (NCI-H2818 (Mesothelioma)): 0.146 | combination Emax [12]: 0.144 | combination Emax [13]: 0.143 | combination Emax [14]: 0.164 | combination Emax [15]: 0.128 | combination Emax [16]: 0.276 | combination Emax (U251 (Low Grade Glioma)): 0.0432

NC1(C(=O)N[C@@H](CCO)c2ccc(Cl)cc2)CCN(c2ncnc3[nH]ccc23)CC1 [Capivasertib] + C[C@@H]1COCCN1C2=NC(=NC(=C2)C3(CC3)[S@](=N)(=O)C)C4=C5C=CNC5=NC=C4 [AZD6738] (first compound max 10 µM, 7x7, partner max 10 µM)
combination Emax [1]: 0.623 | combination Emax [2]: 0.684 | combination Emax (CHP-212 (Neuroblastoma)): 0.829 | combination Emax (ES8 (Ewing's Sarcoma)): 0.961 | combination Emax [3]: 0.809 | combination Emax [4]: 0.422 | combination Emax [5]: 0.805 | combination Emax [6]: 0.866 | combination Emax [7]: 0.979 | combination Emax [8]: 0.888 | combination Emax [9]: 0.296 | combination Emax [10]: 1 | combination Emax [11]: 0.767 | combination Emax (NCI-H2818 (Mesothelioma)): 0.437 | combination Emax [12]: 1 | combination Emax [13]: 0.478 | combination Emax [14]: 0.497 | combination Emax [15]: 0.385 | combination Emax [16]: 0.718 | combination Emax (U251 (Low Grade Glioma)): 0.444

NC1(C(=O)N[C@@H](CCO)c2ccc(Cl)cc2)CCN(c2ncnc3[nH]ccc23)CC1 [Capivasertib] + CC(C)n1c(=O)n(C)c2cnc3cc(F)c(-c4ccc(OCCCN5CCCCC5)nc4)cc3c21 [AZD1390] (first compound max 10 µM, 7x7, partner max 0.3 µM)
combination Emax [1]: 0.221 | combination Emax [2]: 0.665 | combination Emax (CHP-212 (Neuroblastoma)): 0.262 | combination Emax (ES8 (Ewing's Sarcoma)): 0.545 | combination Emax [3]: 0.611 | combination Emax [4]: 0.215 | combination Emax [5]: 0.225 | combination Emax [6]: 0.33 | combination Emax [7]: 0.266 | combination Emax [8]: 0.864 | combination Emax [9]: 0.145 | combination Emax [10]: 0.719 | combination Emax [11]: 0.179 | combination Emax (NCI-H2818 (Mesothelioma)): 0.224 | combination Emax [12]: 0.489 | combination Emax [13]: 0.242 | combination Emax [14]: 0.276 | combination Emax [15]: 0.25 | combination Emax [16]: 0.175 | combination Emax (U251 (Low Grade Glioma)): 0.284

Cn1cnc2c(F)c(Nc3ccc(Br)cc3Cl)c(C(=O)NOCCO)cc21 [Selumetinib] + CC(C)n1c(=O)n(C)c2cnc3cc(F)c(-c4ccc(OCCCN5CCCCC5)nc4)cc3c21 [AZD1390] (first compound max 10 µM, 7x7, partner max 0.3 µM)
combination Emax [1]: 0.606 | combination Emax [2]: 0.0892 | combination Emax (CHP-212 (Neuroblastoma)): 0.923 | combination Emax (ES8 (Ewing's Sarcoma)): 0.263 | combination Emax [3]: 0.225 | combination Emax [4]: 0.248 | combination Emax [5]: 0.743 | combination Emax [6]: 0.168 | combination Emax [7]: 0.478 | combination Emax [8]: 0.0965 | combination Emax [9]: 0.137 | combination Emax [10]: 0.277 | combination Emax [11]: 0.378 | combination Emax (NCI-H2818 (Mesothelioma)): 0.138 | combination Emax [12]: 0.305 | combination Emax [13]: 0.111 | combination Emax [14]: 0.437 | combination Emax [15]: 0.567 | combination Emax [16]: 0.138 | combination Emax (U251 (Low Grade Glioma)): 0.141

CN(CCO)CC[C@H](CSc1ccccc1)Nc1ccc(S(=O)(=O)NC(=O)c2ccc(N3CCC([C@@H](O)c4ccccc4-c4ccc(Cl)cc4)CC3)cc2)cc1S(=O)(=O)C(F)(F)F [AZD4320] + C[C@@H]1COCCN1C2=NC(=NC(=C2)C3(CC3)[S@](=N)(=O)C)C4=C5C=CNC5=NC=C4 [AZD6738] (first compound max 1 µM, 7x7, partner max 10 µM)
combination Emax [1]: 0.926 | combination Emax [2]: 0.658 | combination Emax (CHP-212 (Neuroblastoma)): 0.82 | combination Emax (ES8 (Ewing's Sarcoma)): 1 | combination Emax [3]: 0.745 | combination Emax [4]: 0.745 | combination Emax [5]: 0.95 | combination Emax [6]: 0.88 | combination Emax [7]: 0.976 | combination Emax [8]: 0.842 | combination Emax [9]: 0.442 | combination Emax [10]: 1 | combination Emax [11]: 0.777 | combination Emax (NCI-H2818 (Mesothelioma)): 0.567 | combination Emax [12]: 1 | combination Emax [13]: 0.636 | combination Emax [15]: 0.585 | combination Emax [16]: 0.729 | combination Emax (U251 (Low Grade Glioma)): 0.534

CN(CCO)CC[C@H](CSc1ccccc1)Nc1ccc(S(=O)(=O)NC(=O)c2ccc(N3CCC([C@@H](O)c4ccccc4-c4ccc(Cl)cc4)CC3)cc2)cc1S(=O)(=O)C(F)(F)F [AZD4320] + C1CN(CCC1(C(=O)N[C@@H](CCO)C2=CC=C(C=C2)Cl)N)C3=NC=NC4=C3C=CN4 [Capivasertib] (first compound max 1 µM, 7x7, partner max 3 µM)
combination Emax [1]: 0.0682 | combination Emax [2]: 0.821 | combination Emax (CHP-212 (Neuroblastoma)): 0.176 | combination Emax (ES8 (Ewing's Sarcoma)): 0.493 | combination Emax [3]: 0.402 | combination Emax [4]: 0.584 | combination Emax [5]: 0.873 | combination Emax [6]: 0.129 | combination Emax [7]: 0.35 | combination Emax [8]: 0.741 | combination Emax [10]: 1 | combination Emax [11]: 0.0895 | combination Emax (NCI-H2818 (Mesothelioma)): 0.184 | combination Emax [12]: 1 | combination Emax [13]: 0.422 | combination Emax [14]: 0.709 | combination Emax [15]: 0.104 | combination Emax [16]: 0.131 | combination Emax (U251 (Low Grade Glioma)): 0.181
